1 molecule from patent publication US20260286302A1, “METHODS FOR PRODUCING A SUPER CENTRAL MEMORY CD8 T CELL SUBTYPE BY POLY(ADP-RIBOSE) POLYMERASE (PARP) INHIBITION AND USES THEREOF” (Georgetown University, priority 2023, published 2026) can be followed below.

Structures are written as SMILES.

Test [1] relates to human CD8 T cells. As to the kind of experiment: In vitro-activated human CD8+ T cells, memory characteristics. It is filed as cell-based. As to conditions: anti-CD3/CD28 coupled beads for 72 h. Here is the method:
For evaluation of memory characteristics in human CD8+ T cells, naive CD8+ T cells were activated in the presence or absence of PARPi, by Dynabeads™ Human T-Activator CD3/CD28 (Thermo Fisher #11131), […]. Post-activation cells were gated upon CD8^+ T cell population and various characteristics were investigated as described in the Examples below.
(§1) A total of 0.1-0.2×10^6 cells per sample were stained for Live/Dead staining followed by fixation and permeabilization. For IFNγ and granzyme B (Gzm B) staining, BD Cytofix/Cytoperm (catalog no. 51-2090KZ) and BD Perm/Wash (catalog no. 51-2091KZ) buffer set were used according to the manufacturer's instructions (BD Pharmingen). CD8^+ T cells from tumor samples were stained similarly. Data acquisition was performed on a BD LSR II flow cytometer using the software FACS Diva v.9.0. Results were analyzed using FlowJo software (TreeStar). MitoFM, a green-fluorescent mitochondrial stain, which localizes to mitochondria, was used as described previously (Sukumar et al., Cell Metab 23 (1): 63-76, 2016).
To this end, human naïve CD8 T cells were activated with anti-CD3/CD28 coupled beads for 72 h.

Test [2] concerns CD8+ T cells in TME of B16F10 tumors. As to the kind of experiment: Immune profiling of the TME, B16F10 tumor-bearing mice. It counts as in vivo, mouse.
From the text: (§2) Two-to-three days after the second vaccination, mice in the various groups were euthanized and tumors were collected.
as §1

In test [3] the test system is pMel-1 CD8 T cells. In words: RT-PCR gene expression in TCM^sup versus TCM. It counts as cell-based, mouse. As to conditions: TCM^sup vs gp100-induced TCM. An excerpt:
Total RNA was extracted from gp100 or gp100 plus PARPi-activated CD8 T cells using the RNeasy Mini Kit (Qiagen, catalog no. 74004) following the manufacturer's instructions. The extraction included a digestion step with DNase I to prevent subsequent amplification of genomic DNA. One μg total RNA was subjected to single-strand complementary DNA synthesis using High-Capacity cDNA Reverse Transcription Kit (Thermo Fisher, catalog no. 4368814). The Taqman® gene expression assay from Applied Biosystems was used for qrtPCR, and primer pairs (catalog no. 4331182) from Applied Biosystems were used to detect gene expression of Eomes (#Mm01351984-m1), Acot1 (#Mm0162271-S1), Cpt1a (#Mm0123183-m1), Klf2 (#Mm00500486-g1), CD62L (#Mm00441291-m1),CCR7 (#Mm99999130-s1), and Cdkn1b (#Mm00438168-m1). Data were procured using StepOnePlus Real-Time PCR System from Applied Biosystems and normalized to the geometric mean of the housekeeping gene beta-actin (β-actin) (#Mm02619580-g1).

The subject of test [4] is NAD. In words: NAD accumulation assay. It counts as cell-based, mouse. The following applies: activated pMel-1 CD8 T cells, 48 h. The protocol:
pMel-1 CD8 T cells were activated with gp100 in the presence or absence of PARPi for 48 h. Cells were washed with cold PBS and pelleted in a microcentrifuge tube by centrifuging at 2,000 rpm for 5 minutes. Cells were lysed with 400 μL of NADH/NAD extraction buffer and then centrifuged at 13,000 g for 10 minutes to remove insoluble material. The supernatants were collected and the levels of NAD in the cell lysates were estimated using the NAD/NADH Quantitation Kit according to the manufacturing kit (Millipore NAD/NADH Quantification Kit Sigma #MAK037).

Test [5] deals with CD8+ T cells in TME of TC-1 tumors. As to the kind of experiment: Immune profiling of the TME, TC-1 tumor-bearing mice. It counts as in vivo, mouse.
From the text: as §2, §1

Test [6] has as its system CD8 T cells of patients with recurrent ovarian cancer. In words: PBMC of ovarian cancer patients pre and post treatment. It counts as in vivo, human. Here is the method: Peripheral blood mononuclear cells (PBMCs) were isolated from whole blood collected in cell preparation tubes (CPT) with sodium citrate and viably frozen until analysis. After thawing, PBMCs were washed with flow buffer (5% BSA, 2 mM EDTA in PBS), incubated with Fc receptor blocking reagent (Miltenyi Biotec) and stained with monoclonal antibodies for 20-30 min at 4° C. For staining for Ki-67 and Granzyme B, cells were fixed and permeabilized using a Fix/Perm buffer (eBiosciences) according to the manufacturer's instructions. Dead cells were excluded from the analysis by using the viability dye, LIVE/DEAD Fixable (Life Technologies). All assays were performed using multiparametric flow cytometry (MACSQuant; Miltenyi Biotec). Data were analyzed using FlowJo software v.10.6.1 (FlowJo, LLC). Flow cytometric data were quantified either as the median fluorescence intensity or as a percentage of cells, as indicated.

Consider `O=C(c1cc(Cc2n[nH]c(=O)c3ccccc23)ccc1F)N1CCN(C(=O)C2CC2)CC1` [olaparib], for which, in test [1], the IFNγ expression result was “significant increase”, the “number of CD45ROhiCCR7hi cells” value was “significant increase” and the “number of CD45ROhiCD62Lhi cells” value is “significant increase”. Moreover, in test [2] (B16, vaccinated in the presence of PARPi vs either treatment alone), the “number of total and antigen-specific CD8+ T cells in TME” value was “significant increase”. Further, the “IFNγ+ and granzyme B+ total and antigen-specific CD8+ T cells” value in test [2] (B16F10, PARPi given with the vaccine) is listed as “enhanced functionality”. Also, the “vaccine-induced central memory CD8 T cells in the TME” value in test [2] (B16F10, PARPi with vaccine) was “increased”. The “proliferation of CD8 T cells as determined by Ki67 expression” value in test [2] (B16F10 TME) was “significant decrease”. Also, in test [3], the “FOXO1-regulated memory genes (Cd62l, Klf2, Tcf7, Ccr7)” value was “upregulated”; the “expression of Acot1 and Cpt1α” value was “significantly higher”. In test [4], the “accumulation of NAD” value is on record as “significantly enhanced”. Moreover, the “number of total and antigen-specific CD8+ T cells in TME” value in test [5] (TC1, vaccinated in the presence of PARPi vs either treatment alone) is “significant increase”. For the same molecule, the “IFNγ+ and granzyme B+ total and antigen-specific CD8+ T cells” value in test [5] (TC-1, PARPi given with the vaccine) was “enhanced functionality”. Besides, in test [5] (TC-1, PARPi in combination with vaccine), the “CD44hiCD62Lhi CD8 T cells within the TCM compartment in the TME” value is listed as “appearance of a distinct population”. For the same molecule, in test [5] (TC-1, PARPi with vaccine), the “vaccine-induced total and antigen-specific effector (TEM) and central memory (TCM) CD8 T cells in the TME” value is listed as “increased”. The “proliferation of CD8 T cells as determined by Ki67 expression” value in test [5] (TC-1 TME) was “significant decrease”. For the same molecule, the “frequency of Ki67+ CD8 T cells” value in test [6] (olaparib plus anti-PDL1 (Durvalumab), pre vs post treatment) is “decrease”. Also, in test [6] (olaparib plus anti-PDL1 (Durvalumab), some patients), the “CD62L expression in TCM CD8 T cells” value was “increased”. Besides, in test [6] (ovarian cancer patients treated with olaparib plus anti-PDL1 (Durvalumab), pre vs post treatment), the “patients with an increase in TCM CD8 T cells” value amounted to 63%.
